Assay results published in publication PMC7614227, “Structural Basis of Mammalian Respiratory Complex I Inhibition by Medicinal Biguanides” (Science (New York, N.Y.), 2023).

Columns and labels:
[1] = target: T1, complex I catalysis in bovine heart mitochondrial membranes (Bos taurus, UniProt P03887+P03898+P17694+P42026); assay: NADH:O2 oxidoreduction by bovine heart mitochondrial membranes; type: biochemical
T1 construct: Fresh cow hearts were purchased from an abattoir; tissue C; Humphreys and Sons, Chelmsford, U.K. (abattoir); host or cells: bovine heart mitochondrial membranes

[2] = test system: mitochondrial glycerophosphate dehydrogenase (mGPD); settings: cited from earlier work
[3] = target: T2, detergent-solubilized, purified bovine complex I (Bos taurus, UniProt P03887+P03898+P17694+P42026); assay: NADH:decylubiquinone (NADH:DQ) oxidoreduction by purified complex I; type: biochemical
T2 construct: from tissue; host or cells: bovine heart mitochondrial membranes, solubilized in DDM, Q-Sepharose and Superose 6 chromatography
Procedure: (§1) and filtered (0.2 µM). The complexes were then separated by ion-exchange chromatography (Q-
(§2) Sepharose, GE Healthcare, as described previously (62)) and complex I-containing fractions
(§3) pooled and concentrated using a 50 kDa MWCO spin column (Merck Millipore). The samples
(§4) were clarified using a Spin-X 0.22 µm centrifugal filter (Corning) then applied to a Superose 6
(§5) Increase 5/150 (inhibitor-free dataset) or 10/300 column (biguanide-inhibited dataset) (GE
(§6) Healthcare) and eluted in 20 mM Tris-HCl (pH 7.14 at 20 ° C), 150 mM NaCl and 0.05% DDM.
(§7) Complex I elutes as a monodisperse peak at ~ 1.6 or 13 mL from the superose 6 increase 5/150 or
(§8) 10/300 columns, respectively (Fig. S3). The peak fractions for the biguanide-inhibited dataset were
(§9) concentrated using a 50 kDa MWCO spin column (Merck Millipore) and the protein concentration
(§10) quantified using a nanodrop UV-vis spectrophotometer (e280 = 0.2 mg-1 mL); IM1092 was then […]
(§11) µg of purified complex I was reduced with 10 mM dithiothreitol and analyzed on a Novex Tris- […]
(§12) NADH:O2 oxidoreduction by membranes was measured at 10 µg-protein mL-1 using 200 μM […]
(§13) assays. NADH:decylubiquinone (NADH:DQ) oxidoreduction by complex I was measured at 0.5 […]
(§14) measured by linear regression of the maximal slope and quantified by the absorbance of NADH at […]
(§15) was determined to evaluate the active/deactive ratio by incubating the membranes (2 mg-protein […]

HEPG2 C3A cells = assay: Cellular oxygen consumption (Seahorse XFe96, rotenone-sensitive OCR); type: cell-based
Procedure: from the weighed sample (1.15 mg) and solvent (0.78956g) masses of 4.31 mM, implying a purity of 93%. The proton NMR spectrum is consistent with the presented chemical structure and with the described shifts for this compound (27). The shifts observed here were ¹H NMR (DMSO, 400 […]
Cellular oxygen consumption measurements
HEPG2 C3A (ATCC CRL10741) cells were a kind gift from AstraZeneca and were authenticated by STR profiling (Eurofins). Cells were grown in Dulbecco's modified Eagle's medium (DMEM, Thermo Fisher Scientific) containing 10 mM glucose supplemented with 10% fetal bovine serum (Thermo Fisher Scientific) at 37 °C in 5% CO2. Per well, 2×10^4 cells were plated into an XFe96 (Agilent) cell plate and incubated for 24 h at 37 °C in 5% CO2. […] OCRs (oxygen consumption rates) were measured in a XFe96 Seahorse extracellular flux analyzer; 2 μM rotenone was used to inhibit complex I at the end of the assay. To calculate the normalized rotenone-sensitive OCR rates, the rotenone-insensitive rates (determined at the end of the experiment) were subtracted, and the traces normalized to 100% at the measurement before IM1092 addition. […] IC50 values were calculated using the normalized rates, following 6 hours of incubation […]

[4] = test system: T3, complex I in bovine heart mitochondrial membranes; assay: NEM sensitivity of NADH:O2 activity (active/deactive ratio); type: biochemical; settings: as-prepared membranes incubated with 200 μM IM1092 and NEM at 4 °C
T3 construct: Fresh cow hearts were purchased from an abattoir; tissue C; Humphreys and Sons, Chelmsford, U.K. (abattoir); host or cells: bovine heart mitochondrial membranes
Procedure: as §1, §2, §3, §4, §5, §6, §7, §8, §9, §10, §11, §12, §13, §14, §15

[5] = Fig. 1B, membranes of differing deactive complex I content, 1st labelled value (deactive content not given)
[6] = Fig. 1B, membranes of differing deactive complex I content, 2nd labelled value (deactive content not given)
[7] = Fig. 1B, membranes of differing deactive complex I content, 3rd labelled value (deactive content not given)
[8] = Fig. 1C, pH 9D(i): pH 9 deactivated membranes with antimycin A and AOX
[9] = Fig. 1C, pH 9D: pH 9 deactivated membranes

SMILES	IC50 [1, 5] [µM]	IC50 [1, 6] [µM]	IC50 [1, 7] [µM]	IC50 ([1]; Fig. 1C, pH 8) [µM]	IC50 ([1]; Fig. 1C, pH 9) [µM]	IC50 [1, 8] [µM]	IC50 [1, 9] [µM]	inhibition of human mGPD [2]	IC50 ([1]; Fig. 1C, pH 6) [µM]	IC50 ([1]; Fig. 1C, pH 7) [µM]	IC50 ([3]; catalysis of detergent-solubilized, purified bovine complex I (NADH:DQ)) [µM]	control catalytic rate recovered after dilution into inhibitor-free assay buffer ([3]; complex I incubated with 350 μM IM1092 as for cryo-EM grids, then diluted, reversibility) [%]	effect on cellular oxygen consumption (HEPG2 C3A cells)	deactive content of membranes [4]
CN(C)C(=N)N=C(N)N [Metformin, metformin, reference compound]	99000	52000	33000	38000	9000	8000	15000	not to inhibit	–	–	–	–	–	–
N=C(N=C(N)N)NCCc1ccc(I)c(Cl)c1 [IM1092]	32	20	4	21	4	0.816	0.846	–	43	27	86	98	inhibits cellular oxygen consumption	essentially the same deactive content as biguanide-free controls
